Measurements taken from patent publication US5089507A, “Heterocyclic piperidinyl compounds having analgesic effect” (Dr. L. Zambeletti SpA, priority 1988, dated 1992).
Counter-ions that a name gives are not always drawn.

Assays:
Type in all cases: in vivo, Male Charles River mice (Swiss Strain)
[1] = test system: mice (p-phenylquinone-induced abdominal writhing); assay: P-phenylquinone-induced abdominal writhing test in mice; conditions: sc, 20 min pretreatment, p-phenylquinone 2 mg/Kg i.p.; for ED50: Mus musculus, 20 min, read-out: ANALGESIA M. WRITHING (GRADED) ED50
Protocol: A) P-phenylquinone-induced abdominal writhing test in mice
The methodology employed is based on that described by Sigmund et al, Proc. Soc. Exptl. Biol. 95, 729/1957, modified by Milne and Twomey, Agents and Actions, 10, 31/1980.
Male Charles River mice (Swiss Strain), 25-36 g body weight, were used. Animals were allowed food and water ad libitum and were randomized into groups of 10 prior to experimentation. Test compounds were dissolved in either distilled water or distilled water plus 0.1M AMS, and administered by the subcutaneous route in a final volume of 10 ml/Kg. Control animals received 10 ml/Kg of the appropriate vehicle alone. Following a pretreatment period of 20 min., mice were injected intraperitoneally with p-phenylquinone, 2 mg/Kg at 37° C. in a final volume of […]. […] During this period the number of abdominal writhing responses per animal were recorded where writhing consists of an intermittent contraction of the abdomen associated with hind leg extension.
The degree of antinociceptive protection afforded by the test compound was determined as the mean number of writhing responses observed in the treated group (T) expressed as a percentage of the mean number of writhing responses in the control group (C) according to the following formula:
[1-(T/C]×100% graded protection

[2] = test system: mice (tail-flick); assay: Tail-flick test in mice (quantal protection); conditions: sc, 30 min pretreatment; for ED50: Mus musculus, 0.5 h, read-out: ANALGESIA M. TAIL-FLICK (QUANTAL) ED50; for ANALGESIA M. TAIL-FLICK (QUANTAL) ED50: 30 min
Protocol: (§1) B) Tail-flick test in mice
(§2) The methodology employed is based on that described by D'Amour and Smith, J. Pharmacol. Exp. Ther. 72, 74/1941.
(§3) Male Charles River mice (Swiss Strain), 22-34 g body weight were used. Animals were allowed food and water ad libitum and were randomized into groups of 10 prior to experimentation.
(§4) Test compounds were dissolved in either distilled water or distilled water plus 0.1M AMS and administered by the subcutaneous route in a final volume of 10 ml/Kg. Control animals received 10 ml/kg of the appropriate vehicle alone. Following a pretreatment period of 30 min., the mice were again placed under the heat source and the reaction tine re-determined.
Percentage quantal protection was determined as the number of mice in which the reaction time was doubled compared to pretreatment values, expressed as a percentage of the total number of mice in the group.

[3] = test system: mice (tail-flick); assay: Duration of action, M. tail-flick (graded), % activity at MTFQ ED50; conditions: mouse, sc
Protocol: as §1, §2, §3
as §4, with “re-determined. […]” for “re-determined.”

With `CC1(C)CCN(C(=O)Cc2ccc(Cl)c(Cl)c2)C(CN2CCCC2)C1` (stereo not drawn) [Example 14, 1-(3,4-dichlorophenyl)acetyl-2-(pyrrolidin-1-yl)methyl-4,4-dimethyl piperidine hydrochloride] the ED50 [1] was 0.147 mg/kg, the ED50 [2] was 0.824 mg/kg and the “DURATION OF ACTION M. TAIL-FLICK (GRADED) % ACTIVITY AT MTFQ ED50, 30'” value [3] was 69%. The “DURATION OF ACTION M. TAIL-FLICK (GRADED) % ACTIVITY AT MTFQ ED50, 90'” value [3] was 69%.
For `CC1CCCC(CN2CCCC2)N1C(=O)Cc1ccc(Cl)c(Cl)c1` (single isomer, unassigned; diastereoisomer a) [Example 5, 1-(3,4-dichlorophenyl)acetyl-2-(pyrrolidin-1-yl)methyl-6-methyl piperidine hydrochloride diastereoisomer A], the ED50 [1] was 0.03 mg/kg, the ED50 [2] was 0.135 mg/kg and the “DURATION OF ACTION M. TAIL-FLICK (GRADED) % ACTIVITY AT MTFQ ED50, 30'” value [3] was 83%. For the same compound, the “DURATION OF ACTION M. TAIL-FLICK (GRADED) % ACTIVITY AT MTFQ ED50, 90'” value [3] was 42%.
With `CC1CCCC(CN2CCCC2)N1C(=O)Cc1ccc(Cl)c(Cl)c1` (single isomer, unassigned; diastereoisomer a) [Example 6, 1-(3,4-dichlorophenyl)acetyl-2-(pyrrolidin-1-yl)methyl-6-methyl piperidine hydrochloride hemihydrate Diastereoisomer A] the “ANALGESIA M. TAIL-FLICK (QUANTAL) % protection at 1.78 mg/Kg” value ([2]; mouse, 1.78 mg/Kg) was 60%, the “DURATION OF ACTION M. TAIL-FLICK (GRADED) % ACTIVITY AT MTFQ ED50, 30'” value [3] was 77% and the “DURATION OF ACTION M. TAIL-FLICK (GRADED) % ACTIVITY AT MTFQ ED50, 90'” value [3] was 35%.
With `CC1(C)CCCN(C(=O)Cc2ccc(Cl)c(Cl)c2)C1CN1CCCC1` (stereo not drawn) [Example 9, 1-(3,4-dichlorophenyl)acetyl-2-(pyrrolidin-1-yl)methyl-3,3-dimethyl piperidine hydrochloride] the ED50 [1] was 0.029 mg/kg, the ED50 [2] was 0.136 mg/kg and the “DURATION OF ACTION M. TAIL-FLICK (GRADED) % ACTIVITY AT MTFQ ED50, 30'” value [3] was 86%. For the same compound, the “DURATION OF ACTION M. TAIL-FLICK (GRADED) % ACTIVITY AT MTFQ ED50, 90'” value [3] was 58%.
With `CC1CCCN(C(=O)Cc2ccc(Cl)c(Cl)c2)C1CN1CCCC1` (single isomer, unassigned) [Example 2, 1-(3,4-dichlorophenyl)acetyl-2-(pyrrolidin-1-yl)methyl-3-methyl piperidine hydrochloride diasteroisomer B] the “ANALGESIA M. WRITHING (GRADED) ED50” value ([1]; mouse) was 0.091 mg/kg, the “ANALGESIA M. TAIL-FLICK (QUANTAL) ED50” value ([2]; mouse) was 0.147 mg/kg and the “DURATION OF ACTION M. TAIL-FLICK (GRADED) % ACTIVITY AT MTFQ ED50, 30'” value [3] was 66%. For the same compound, the “DURATION OF ACTION M. TAIL-FLICK (GRADED) % ACTIVITY AT MTFQ ED50, 90'” value [3] was 44%.
Compound `O=C(Cc1ccc(Cl)c(Cl)c1)N1CCC[C@@H](O)[C@@H]1CN1CCCC1` (relative stereo) [Example 7, 1-(3,4-dichlorophenyl)acetyl-2-(pyrrolidin-1-yl)methyl-3-hydroxy piperidine hydrochloride diastereoisomer A trans] has an ED50 [1] of 0.141 mg/kg and an ED50 [2] of 0.825 mg/kg.
`CC1CCC(CN2CCCC2)N(C(=O)Cc2ccc(Cl)c(Cl)c2)C1` (single isomer, unassigned) [Example 4, 1-(3,4-dichlorophenylacetyl)-2-(pyrrolidin-1-yl)methyl-5-methyl piperidine hydrochloride diasteroisomer A] was tested, and the ED50 [1] was 0.163 mg/kg, the ED50 [2] was 0.749 mg/kg and the “DURATION OF ACTION M. TAIL-FLICK (GRADED) % ACTIVITY AT MTFQ ED50, 30'” value [3] was 80%. For the same compound, the “DURATION OF ACTION M. TAIL-FLICK (GRADED) % ACTIVITY AT MTFQ ED50, 90'” value [3] was 54%.
With `CC1CCCN(C(=O)Cc2ccc(Cl)c(Cl)c2)C1CN1CCCC1` (single isomer, unassigned) [Example 1, 1-(3,4-dichlorophenyl)acetyl-2-(pyrrolidin-1-yl)methyl-3-methyl piperidine hydrochloride hemihydrate diasteroisomer A] the ED50 [1] was 0.093 mg/kg, the “ANALGESIA M. TAIL-FLICK (QUANTAL) ED50” value ([2]; mouse) was 0.405 mg/kg and the “DURATION OF ACTION M. TAIL-FLICK (GRADED) % ACTIVITY AT MTFQ ED50, 30'” value [3] was 87%. The “DURATION OF ACTION M. TAIL-FLICK (GRADED) % ACTIVITY AT MTFQ ED50, 90'” value [3] was 68%.
For `CC1(C)CCN(C(=O)Cc2ccc(C(F)(F)F)cc2)C(CN2CCCC2)C1` (stereo not drawn) [Example 15, 1-(4-trifluoromethylphenyl)acetyl-2-(pyrrolidin-1-yl)methyl-4,4-dimethyl piperidine hydrochloride], the ED50 [1] was 0.242 mg/kg, the ED50 [2] was 1.8 mg/kg and the “DURATION OF ACTION M. TAIL-FLICK (GRADED) % ACTIVITY AT MTFQ ED50, 30'” value [3] was 58%. For the same compound, the “DURATION OF ACTION M. TAIL-FLICK (GRADED) % ACTIVITY AT MTFQ ED50, 90'” value [3] was 63%.
In the case of `CC1CCN(C(=O)Cc2ccc(Cl)c(Cl)c2)C(CN2CCCC2)C1` (single isomer, unassigned; diastereoisomer a) [Example 3, 1-(3,4-dichlorophenylacetyl)-2-(pyrrolidin-1-yl)methyl-4-methyl piperidine hydrochloride hemihydrate diastereoisomer A], the ED50 [1] is reported as 0.149 mg/kg, the ED50 [2] is reported as 0.202 mg/kg and the “DURATION OF ACTION M. TAIL-FLICK (GRADED) % ACTIVITY AT MTFQ ED50, 30'” value [3] is reported as 86%. The “DURATION OF ACTION M. TAIL-FLICK (GRADED) % ACTIVITY AT MTFQ ED50, 90'” value [3] was 17%.
With `CC1(C)CCC(CN2CCCC2)N(C(=O)Cc2ccc(Cl)c(Cl)c2)C1` (stereo not drawn) [Example 11, 1-(3,4-dichlorophenyl)acetyl-2-(pyrrolidin-1-yl)methyl-5,5-dimethyl piperidine hydrochloride] the ED50 [1] was 0.605 mg/kg, the ED50 [2] was 1.16 mg/kg and the “DURATION OF ACTION M. TAIL-FLICK (GRADED) % ACTIVITY AT MTFQ ED50, 30'” value [3] was 59%. For the same compound, the “DURATION OF ACTION M. TAIL-FLICK (GRADED) % ACTIVITY AT MTFQ ED50, 90'” value [3] was 57%.
With `CC1(C)CCCN(C(=O)Cc2ccc(C(F)(F)F)cc2)C1CN1CCCC1` (stereo not drawn) [Example 10, 1-(4-trifluoromethylphenyl)acetyl-2-(pyrrolidin-1-yl)methyl-3,3-dimethyl piperidine hydrochloride] the ED50 [1] was 0.023 mg/kg, the ED50 [2] was 0.116 mg/kg and the “DURATION OF ACTION M. TAIL-FLICK (GRADED) % ACTIVITY AT MTFQ ED50, 30'” value [3] was 59%. For the same compound, the “DURATION OF ACTION M. TAIL-FLICK (GRADED) % ACTIVITY AT MTFQ ED50, 90'” value [3] was 57%.
In the case of `CC1(C)CCCN(C(=O)Cc2ccc3c(c2)CCCC3=O)C1CN1CCCC1` (stereo not drawn) [Example 13, 1-[1-oxo-3,4-dihydro-(2H)-napht-6-yl]acetyl-2-(pyrrolidin-1-yl)methyl-3,3-dimethyl piperidine], the “ANALGESIA M. TAIL-FLICK (QUANTAL) % protection at 10 mg” value ([2]; mouse) is reported as 60%.
`O=C(Cc1ccc(Cl)c(Cl)c1)N1CCC[C@H](O)[C@@H]1CN1CCCC1` (relative stereo) [Example 8, 1-(3,4-dichlorophenyl)acetyl-2-(pyrrolidin-1-yl)methyl-3-hydroxy piperidine hydrochloride diastereoisomer B cis] was tested, and the “ANALGESIA M. TAIL-FLICK (QUANTAL) % protection at 10 mg” value ([2]; mouse) was 20%.
In the case of `CC1(C)CCCN(C(=O)Cc2ccc3c(c2)CCCC3)C1CN1CCCC1` (stereo not drawn) [Example 12, 1-(5,6,7,8-tetrahydronapht-2-yl)acetyl-2-(pyrrolidin-1-yl) methyl-3,3-dimethyl piperidine hydrochloride], the ED50 [1] is reported as 0.273 mg/kg, the ED50 [2] is reported as 1.21 mg/kg and the “DURATION OF ACTION M. TAIL-FLICK (GRADED) % ACTIVITY AT MTFQ ED50, 30'” value [3] is reported as 67%. For the same compound, the “DURATION OF ACTION M. TAIL-FLICK (GRADED) % ACTIVITY AT MTFQ ED50, 90'” value [3] was 65%.
